The supplement of paper PMC8967900

Legend:
Test in all cases: selective drug sensitivity score (sDSS, relative to normal bone marrow) (sDSS (score)); higher = more potent and effective on the cell line relative to normal bone marrow cells
Details in all cases: 72 h
ALL-PO = test system: ALL-PO
JURKAT = test system: JURKAT
NALM-6 = test system: NALM-6
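Note: ALL cell lines in 384-well plates, five doses spanning 10,000-fold, each plate scaled between vehicle and 100 µmol/L benzalkonium chloride controls, sDSS an adapted area-under-curve metric.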

Structure (SMILES)	selective drug sensitivity score (ALL-PO)	selective drug sensitivity score (JURKAT)	selective drug sensitivity score (NALM-6)
CNS(=O)(=O)Nc1nccc(Cc2c(C)c3ccc(Oc4ncccn4)cc3oc2=O)c1F (top concentration 1000 nM)	-1.18	0.92	-0.88
C[C@H]1Oc2cc(cnc2N)-c2c(nn(C)c2C#N)CN(C)C(=O)c2ccc(F)cc21 (top concentration 1000 nM)	-0.72	-0.72	-0.72
CCc1cncnc1N1CCN(Cc2nc3cc(C(F)(F)F)ccc3[nH]2)CC1 (top concentration 10000 nM)	3.86	7.36	1.96
CN(C)CC#Cc1ccc(OCCCc2sc(N3CCc4cccc(C(=O)Nc5nc6ccccc6s5)c4C3)nc2C(=O)O)c(F)c1 (top concentration 10000 nM)	0.46	10.9	11.3
O=C(NC[C@H](O)CN1CCc2ccccc2C1)c1cc(NC2COC2)ncn1 (top concentration 10000 nM)	-0.06	-0.06	-0.06
O=C1Cc2cc(C(=O)NC3C[C@H]4CC[C@@H](C3)N4S(=O)(=O)CC3CCN(CCCC(F)(F)F)CC3)c(Cl)cc2N1 (stereo partly specified) (top concentration 10000 nM)	0	0	0
CC/C(=C(\c1ccc(O)cc1)c1ccc(OCCN(C)C)cc1)c1ccccc1 [4-hydroxytamoxifen] (top concentration 10000 nM)	3.12	2.02	0.02
COCC1(CO)C(=O)C2CCN1CC2 (stereo unspecified) [APR-246] (top concentration 10000 nM)	-1.16	-1.16	1.14
Cc1sc2c(c1C)C(c1ccc(Cl)cc1)=N[C@@H](CC(=O)Nc1ccc(OCCOCCOCCOCCNc3cccc4c3C(=O)N(C3CCC(=O)NC3=O)C4=O)cc1)c1nnc(C)n1-2 (stereo partly specified) [ARV-825] (top concentration 300 nM)	2.34	-13.2	1.24
COc1cc(OC2CCN(C)CC2)ccc1Nc1ncc2c(n1)n(C1CCCC1)c(=O)n2C [AZ3146] (top concentration 10000 nM)	3.44	0.24	3.04
CN(C)CCCOc1ccc(-c2ccc3ncc4c(c3c2)n(C2CCOCC2)c(=O)n4C)cn1 [AZD0156] (top concentration 1000 nM)	2.24	-0.06	-0.06
N#Cc1ccc2[nH]c(O)c(-c3ccc(CN4CCOCC4)cn3)c2c1 [AZD-1080] (top concentration 10000 nM)	2.18	-0.02	1.78
CN(C)C/C=C/C(=O)Nc1cc2c(Nc3ccc(F)c(Cl)c3)ncnc2cc1O[C@H]1CCOC1 [Afatinib] (top concentration 1000 nM)	-0.64	0.16	-0.84
O=C(Nc1ccc(OC(F)(F)Cl)cc1)c1cnc(N2CC[C@@H](O)C2)c(-c2cc[nH]n2)c1 [Asciminib] (top concentration 1000 nM)	-0.28	-0.58	0.42
CC[C@@H]1C(=O)N(C)c2cnc(Nc3ccc(C(=O)NC4CCN(C)CC4)cc3OC)nc2N1C1CCCC1 [BI-2536] (top concentration 1000 nM)	15.9	19.2	13.4
Cc1ccc(NC(=O)c2ccc(CN3CC[C@H](N(C)C)C3)c(C(F)(F)F)c2)cc1Nc1nccc(-c2cncnc2)n1 [Bafetinib] (top concentration 1000 nM)	0	0	0
CC[C@H](NC(=O)[C@H](C)NC)C(=O)N1C[C@@H](O)C[C@H]1Cc1c(-c2[nH]c3cc(F)ccc3c2C[C@@H]2C[C@H](O)CN2C(=O)[C@H](CC)NC(=O)[C@H](C)NC)[nH]c2cc(F)ccc12 [Birinapant] (top concentration 1000 nM)	-1.9	-4.9	-4.2
COc1cc2nccc(Oc3ccc(NC(=O)C4(C(=O)Nc5ccc(F)cc5)CC4)cc3)c2cc1OC [Cabozantinib] (top concentration 1000 nM)	10.4	-3.62	-2.82
CCCCCOC(=O)Nc1nc(=O)n([C@@H]2O[C@H](C)[C@@H](O)[C@H]2O)cc1F [Capecitabine] (top concentration 10000 nM)	-0.06	-0.06	-0.06
Nc1nc(Cl)nc2c1ncn2[C@H]1C[C@H](O)[C@@H](CO)O1 [Cladribine] (top concentration 1000 nM)	8.66	-10.7	0.46
CCN(CC)CCOc1ccc(/C(=C(/Cl)c2ccccc2)c2ccccc2)cc1 [Clomifene] (top concentration 10000 nM)	0.62	-1.28	-0.28

Structure (SMILES)	selective drug sensitivity score (ALL-PO)	selective drug sensitivity score (JURKAT)	selective drug sensitivity score (NALM-6)
CO[C@@H](C(=O)N1Cc2[nH]nc(NC(=O)c3ccc(N4CCN(C)CC4)cc3)c2C1)c1ccccc1 [Danusertib] (top concentration 10000 nM)	13	-0.96	12.5
CC[C@@](C)(Nc1ccnc(-c2c[nH]c3ncccc23)n1)C(=O)NCC(F)(F)F [Decernotinib] (top concentration 10000 nM)	-3.94	-3.94	-3.94
CN1CCN(c2ccc3nc(-c4c(N)c5c(F)cccc5[nH]c4=O)[nH]c3c2)CC1 [Dovitinib] (top concentration 10000 nM)	6.86	-0.14	-0.14
CC(C)(O)CNc1nc(Nc2ccnc(C(F)(F)F)c2)nc(-c2cccc(C(F)(F)F)n2)n1 [Enasidenib] (top concentration 10000 nM)	2.7	-0.7	-0.8
CN1CCN(c2ccc(C(=O)Nc3n[nH]c4ccc(Cc5cc(F)cc(F)c5)cc34)c(NC3CCOCC3)c2)CC1 [Entrectinib] (top concentration 1000 nM)	3.3	-1.2	-1.2
CNC(=O)c1ccc(N2C(=S)N(c3ccc(C#N)c(C(F)(F)F)c3)C(=O)C2(C)C)cc1F [Enzalutamide] (top concentration 10000 nM)	0.88	1.18	0.68
Cn1cc(C2=C(c3cn(C4CCN(Cc5ccccn5)CC4)c4ccccc34)C(=O)NC2=O)c2ccccc21 [Enzastaurin] (top concentration 10000 nM)	5.96	4.26	5.26
NS(=O)(=O)NCCNc1nonc1/C(=N/O)Nc1ccc(F)c(Br)c1 [Epacadostat] (top concentration 10000 nM)	-0.26	-0.16	-0.26
CCOc1ccccc1-n1c(C(C)N2CCN(C(=O)COc3ccc(Cl)cc3)CC2)nc2ccccc2c1=O (stereo unspecified) [Erastin] (top concentration 10000 nM)	4.54	-0.16	7.44
COc1cc(OC)cc(N(CCNC(C)C)c2ccc3ncc(-c4cnn(C)c4)nc3c2)c1 [Erdafitinib] (top concentration 1000 nM)	-0.46	-0.56	-0.56
CC(C)(C)NC(=O)[C@H]1CC[C@H]2[C@@H]3CC[C@H]4NC(=O)C=C[C@]4(C)[C@H]3CC[C@]12C [Finasteride] (top concentration 10000 nM)	0.48	-0.52	-0.52
O=c1[nH]c(=O)n([C@H]2C[C@H](O)[C@@H](CO)O2)cc1F [Floxuridine] (top concentration 10000 nM)	36.5	18.7	24.2
CNc1nc(Nc2cn(C(C)(C)C#N)nc2C)ncc1C(F)(F)F [GNE-0877] (top concentration 1000 nM)	0	0	0
CCCc1cc(C)[nH]c(=O)c1CNC(=O)c1cc(-c2ccnc(N3CCN(C)CC3)c2)cc2c1cnn2C(C)C [GSK343] (top concentration 1000 nM)	0.1	0	0
O=C(O)c1ccc(O)c2ncccc12 [IOX-1] (top concentration 100000 nM)	3.74	3.54	3.74
CC(=O)[C@]1(O)Cc2c(O)c3c(c(O)c2[C@@H](O[C@H]2C[C@H](N)[C@H](O)[C@H](C)O2)C1)C(=O)c1ccccc1C3=O [Idarubicin] (top concentration 1000 nM)	1.64	3.34	7.94
COc1cc2nccc(Oc3ccc(NC(=O)NC4CC4)c(Cl)c3)c2cc1C(N)=O [Lenvatinib] (top concentration 2500 nM)	3.86	-0.24	-0.24
N#Cc1ccc(C(c2ccc(C#N)cc2)n2cncn2)cc1 [Letrozole] (top concentration 10000 nM)	-0.04	-0.04	-0.04
CCNCCS(=O)(=O)NC[C@@]1(c2ccccc2)SC(NC(=O)C(C)(C)C)=NN1C(=O)C(C)(C)C [Litronesib] (top concentration 1000 nM)	14.8	19.2	21.5
CC[C@H](C)C(=O)O[C@H]1C[C@@H](C)C=C2C=C[C@H](C)[C@H](CC[C@@H]3C[C@@H](O)CC(=O)O3)[C@H]21 [Lovastatin] (top concentration 10000 nM)	-0.1	0.1	-0.1
Cn1cc(-c2cnn3c(N)c(Br)c([C@@H]4CCCNC4)nc23)cn1 [MK-8776] (top concentration 2500 nM)	4.44	-1.46	-1.36
